Assay results from US9351963B2, “Defensin-like molecules as novel antimicrobial agents” (UNIVERSITY OF MARYLAND, BALTIMORE, priority 2010, dated 2016).

How the values were obtained:
[1] = Surface Plasmon Resonance binding to immobilized 3-Lipid II (BIAcore); conditions: defensin mimetics at 10 μM, immobilized 3-Lipid II, 25° C.
Method: Short-chain water-soluble Lipid II containing a lipid tail of three isoprene units was generated and purified essentially as described (Breukink, E., van Heusden, H. E., Vollmerhaus, P. J., Swiezewska, E., Brunner, L., Walker, S., Heck, A. J., and de Kruijff, B. (2003) J Biol Chem 278, 19898-19903). Typically, M. flavus vesicles (120 μmol lipid-Pi) were incubated together with 500 μmol UDP-GlcNAc, 500 μmol UDP-MurNAC-pentapeptide and 400 μmol farnesyl phosphate (3-P) in 100 mM Tris-HCl pH 8.0, 5 mM MgCl2. The incubation lasted two hours at room temperature for 3-P. The synthesis of 3-Lipid II was followed using RP-8 reversed phase TLC (Merck) developed in 75% methanol. For purification, the membranes were removed by centrifugation at 40,000×g and the supernatant was collected and loaded on a C18 HPLC column and eluted with a linear gradient from 50 mM ammonium bicarbonate to 100% methanol in 30 minutes. Farnesyl-Lipid II (3-Lipid II) eluted at approximately 60% methanol. Its identity was confirmed by mass spectroscopy.
Surface Plasmon Resonance binding experiments were carried out on a BIAcore T100 system (BIAcore Inc., Piscataway, N.Y.) at 25° C. The assay buffer was 10 mM HEPES, 150 mM NaCl, 0.05% surfactant P20, pH 7.4 (±3 mM EDTA) supplemented with 10% DMSO. […] For initial determination of binding, defensin mimetics were introduced into the flow-cells (30 μl/min) in the running buffer at 10 μM. Resonance signals were corrected for nonspecific binding by subtracting the background of the control flow-cell. After each analysis, the sensor chip surfaces were regenerated with 50 mM NaOH for 30 s at a flow rate 100 μl/min, and equilibrated with the buffer prior to next injection. For binding kinetics studies, binding isotherms were analyzed with manufacturer-supplied software for BIAcore T100.

[2] = tested on: S. aureus ATCC 29213; test: Murine peritoneal sepsis model; assay type: in vivo, C57BL/6J mice; conditions: 5 mg/kg intraperitoneally, preliminary experiments (not shown)
[3] = tested on: Escherichia coli ATCC 25922; test: 96-well turbidimetric antibacterial killing assay, E. coli; assay type: cell-based; conditions: E. coli
Method: (§1) The antibacterial activity of defensin mimetics against Staphylococcus aureus ATCC 29213 and Escherichia coli 25922 was carried out in a 96-well turbidimetric assay essentially as described (Ericksen, B., Wu, Z., Lu, W., and Lehrer, R. I. (2005) Antimicrob Agents Chemother 49, 269-275) with the following modifications: compounds were exposed for 30 min to […] prior to addition of […] in 10 mM phosphate buffer containing 5% DMSO. Bacterial growth was monitored for 12 hours and data were analyzed as described (Ericksen, et al). Determination of MICs was performed by Micromyx, LLC (Kalamazoo, Mich.) according to CLSI standards (CLSI. (2009) Methods for Dilution Antimicrobial Susceptibility Tests for Bacteria That Grow Aerobically; Approved Standard—Eighth Edition.)
The inventors have previously reported on the antibacterial activity of HNP1 and all of its structurally uncompromised single alanine mutants against S. aureus (Wei, G., Pazgier, M., de Leeuw, E., Rajabi, M., Li, J., Zou, G., Jung, G., Yuan, W., Lu, W. Y., Lehrer, R. I., and Lu, W. J Biol Chem 285, 16275-16285). […] If these residues are indeed important for Lipid II binding, one would expect that replacement by alanine will not affect killing of Gram-negative bacteria. […] In particular, FIG. 12 depicts killing of E. coli by HNP-1 Lipid II single alanine mutants. Survival curves of E. coli ATCC 25922 exposed to HNP-1 or HNP-1 single alanine mutants at concentrations varying two-fold from […]. Bacteria were exposed to defensin peptides for 120 min. Each curve is the mean of two separate experiments (±S.D.). Points scored as zero survival could not be plotted.

[4] = tested on: E. coli; test: Broth microdilution MIC (CLSI, Micromyx), E. coli; assay type: cell-based; conditions: Escherichia coli
Method: as §1
To confirm the antibacterial killing assays, Minimal Inhibitory Concentrations (MICs, μg/ml) were determined for lead compounds against clinically relevant bacterial strains (Table 3, FIG. 11). […] Experiments were carried out according to CLSI standards (CLSI. (2009) Methods for Dilution Antimicrobial Susceptibility Tests for Bacteria That Grow Aerobically; Approved Standard—Eighth Edition.) by Micromyx, LLC (Kalamazoo, Mich.). […] There was no significant difference for any compound when evaluated against clinically relevant strains (e.g. MRSA, VRE, PRSP).

[5] = NMR interaction with Lipid II; assay type: binding; conditions: 0.15 mM Lipid II + 0.15 mM compound, d6-DMSO, 25° C.
Method: The NMR samples included 0.15 mM Lipid II, 0.15 mM BAS00127538 compound, or 0.15 mM Lipid II+0.15 mM BAS00127538 compound. All samples were dissolved in 90% double distilled H20+10% DMSO, incubated for 30 minutes, freeze-dried, and then dissolved in 300 uL of d6-DMSO. NMR experiments were carried out at 25° C. on an 800 MHz Bruker Avance NMR spectrometer (800.27 MHz for protons) equipped with a pulse-field gradient unit, four frequency channels, and a triple resonance TXI cryoprobe (Bruker Biospin, Billerica, Mass.). 1D proton experiments were collected to probe for chemical shift changes and 2D TOCSY (30, 60, and 90 msec spinlock times), 2D NOESY (150 and 300 msec mixing times), and natural abundance ^13C-HSQC experiments were collected to determine proton and carbon chemical shift assignments.
To confirm the binding of defensins mimetic BAS00127538 to Lipid II the inventors observed by SPR, their interaction was studied directly by NMR (FIG. 7). Specifically, the inventors used 1D proton NMR spectra to determine if any chemical shift changes occur when the compound was added to 3-Lipid II. […] This Figure depicts an analysis of 2D TOCSY spectra collected at 800 MHz of the aromatic region of compound BAS00127538 alone (black) overlaid with spectra of compound bound to Lipid II (red). […]

CN1/C(=C/C=C/c2cc(-c3ccccc3)cc(-c3ccccc3)[o+]2)C(C)(C)c2ccccc21 [BAS00127538, 2,4-diphenyl-6-[(1E)-3-[(2E)-1,3,3-trimethyl-2,3-dihydro-1H-indol-2-ylidene]prop-1-en-1-yl]-1$1^4-pyran-1-ylium]
Binding to Lipid II as measured by SPR [1]: most strongly bound
Clearing non-lethal doses of S. aureus 29213 [2]: most efficacious
Concentration at which compound was 100% bactericidal against E. coli [3]: 7.8 µM
MIC [4]: 4 µg/mL
Interaction with Lipid II by NMR analysis [5]: found to interact
